The results in this text go back to patent publication US10800792B2, “Inhibitors of Bruton's tyrosine kinase and method of their use” (JANSSEN PHARMACEUTICA NV, priority 2015, dated 2020).

Each structure is given as a SMILES string. Where two headings read alike, the source gives them in different places.

For this assay, the target named is unphosphorylated-BTK kinase domain (UP-BTK), GST-tagged human BTK (389-659aa) (Homo sapiens (Human), UniProt Q06187). The experiment in a line: BTK kinase Lanthascreen binding assay. Particulars: pIC50 = negative log of the IC50 in molar; for IC50: read-out: BTK_I_binding pIC50 (converted). Here is the method:
BTK Kinase Lanthascreen Binding Assay:
A BTK kinase lanthascreen binding assay monitors compound binding to unphosphorylated-BTK kinase domain (UP-BTK), by competing with a fluorescent labeled tracer. […] Data were analyzed using Xlfit™ version 5.3 from ID Business Solutions (Guildford), Microsoft Excel add-in. pIC50 refers to the negative log of the IC50 in molar
Background: In TR-FRET formats the signal depends on donor and acceptor labels being close together.

Setting [1] is: 60 minutes incubation, 50 nM Tracer 236.
[2] abbreviates: unphosphorylated-BTK kinase domain, 50 nM Tracer 236, 60 minutes.
The mark [3] stands for this setting: Lanthascreen tracer competition, 60 minutes incubation.

Chain of unphosphorylated-BTK kinase domain (UP-BTK), GST-tagged human BTK (389-659aa) (Q06187 389-659): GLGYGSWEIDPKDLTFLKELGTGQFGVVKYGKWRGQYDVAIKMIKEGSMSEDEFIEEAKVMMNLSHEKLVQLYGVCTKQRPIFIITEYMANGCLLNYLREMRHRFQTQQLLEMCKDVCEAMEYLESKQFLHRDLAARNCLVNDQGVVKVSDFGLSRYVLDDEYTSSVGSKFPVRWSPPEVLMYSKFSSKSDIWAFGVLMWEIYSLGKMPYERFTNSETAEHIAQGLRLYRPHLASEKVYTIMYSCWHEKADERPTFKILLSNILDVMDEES

On to `Cc1cc(Oc2cccc(COc3ccccc3C#N)c2)ccc1N1C(=O)Nc2c(C(=O)N[C@@H]3CCCN(C)C3)sc3nccc1c23` (mixture of isomers) [Example 24, (R)-5-(4-(3-((2-Cyanophenoxy)methyl)phenoxy)-2-methylphenyl)-N-(1-methylpiperidin-3-yl)-4-oxo-4,5-dihydro-3H-1-thia-3,5,8-triazaacenaphthylene-2-carboxamide], for which, under setting [1], the “BTK_I_binding pIC50” value is on record as 7.7.
With `CCOC(C)(C)C=C(C#N)C(=O)N1CCC[C@@H](NC(=O)c2sc3nccc4c3c2NC(=O)N4c2ccc(Oc3ccccc3)cc2C)C1` (mixture of isomers) [Example 29, (R,EZ)—N-(1-(2-Cyano-4-ethoxy-4-methylpent-2-enoyl)piperidin-3-yl)-5-(2-methyl-4-phenoxyphenyl)-4-oxo-4,5-dihydro-3H-1-thia-3,5,8-triazaacenaphthylene-2-carboxamide], the IC50 under setting [1] is 0.0501 µM.
Turning to `Cc1cc(Oc2ccccc2)ccc1N1C(=O)Nc2c(C(=O)NC3CC[C@@H](C)N(C)C3)sc3nccc1c23` (mixture of isomers) [Example 92, N-(1,6-Dimethylpiperidin-3-yl)-5-(2-methyl-4-phenoxyphenyl)-4-oxo-4,5-dihydro-3H-1-thia-3,5,8-triazaacenaphthylene-2-carboxamide], under setting [1], the “BTK_I_binding pIC50” value is given as 6.8.
Same read-out and setting: under `Cc1cc(Oc2ccccc2)ccc1N1C(=O)Nc2c(C(=O)NC3CC[C@H](C)NC3)sc3nccc1c23` (mixture of isomers) [Example 153, 5-(2-Methyl-4-phenoxyphenyl)-N-((6S)-6-methylpiperidin-3-yl)-4-oxo-4,5-dihydro-3H-1-thia-3,5,8-triazaacenaphthylene-2-carboxamide] stands 6.8.
`Cc1cc(Oc2ccccc2)ccc1N1C(=O)Nc2c(C(=O)NC3CC[C@@H](C)NC3)sc3nccc1c23` (mixture of isomers) [Example 173, 5-(2-Methyl-4-phenoxyphenyl)-N-((6R)-6-methylpiperidin-3-yl)-4-oxo-4,5-dihydro-3H-1-thia-3,5,8-triazaacenaphthylene-2-carboxamide]: under setting [1], the IC50 was 0.158 µM.
Take `CCO/C=C/C(=O)N1CCC[C@@H](NC(=O)c2sc3nccc4c3c2NC(=O)N4c2ccc(Oc3ccccc3)cc2C)C1` (mixture of isomers) [Example 221, (R,E)-N-(1-(3-Ethoxyacryloyl)piperidin-3-yl)-5-(2-methyl-4-phenoxyphenyl)-4-oxo-4,5-dihydro-3H-1-thia-3,5,8-triazaacenaphthylene-2-carboxamide]: under setting [1], the “BTK_I_binding pIC50” value is recorded as 6.9.
With `COC=C(C#N)C(=O)N1CCC[C@@H](NC(=O)c2sc3nccc4c3c2NC(=O)N4c2ccc(Oc3ccccc3)cc2C)C1` (mixture of isomers) [Example 231, (R,EZ)—N-(1-(2-Cyano-3-methoxyacryloyl)piperidin-3-yl)-5-(2-methyl-4-phenoxyphenyl)-4-oxo-4,5-dihydro-3H-1-thia-3,5,8-triazaacenaphthylene-2-carboxamide], the “BTK_I_binding pIC50” value under setting [1] stood at 6.8.
For `COCCNC(C)(C)C=C(C#N)C(=O)N1CCC[C@@H](NC(=O)c2sc3nccc4c3c2NC(=O)N4c2ccc(Oc3ccccc3)cc2C)C1` (mixture of isomers) [Example 234, (R,EZ)—N-(1-(2-Cyano-4-((2-methoxyethyl)amino)-4-methylpent-2-enoyl)piperidin-3-yl)-5-(2-methyl-4-phenoxyphenyl)-4-oxo-4,5-dihydro-3H-1-thia-3,5,8-triazaacenaphthylene-2-carboxamide], the “BTK_I_binding pIC50” value under setting [1] was 7.2.
For the compound `Cc1cc(Oc2ccccc2)ccc1N1C(=O)Nc2c(C(=O)N[C@@H]3CCCN(C(=O)C(=CC4CC4)C(F)(F)F)C3)sc3nccc1c23` (mixture of isomers) [Example 313, (R,EZ)—N-(1-(3-Cyclopropyl-2-(trifluoromethyl)acryloyl)piperidin-3-yl)-5-(2-methyl-4-phenoxyphenyl)-4-oxo-4,5-dihydro-3H-1-thia-3,5,8-triazaacenaphthylene-2-carboxamide], the “BTK_I_binding pIC50” value under setting [2] is listed as 5.9.
Still for that read-out and setting: under `Cc1cc(Oc2ccccc2)ccc1N1C(=O)Nc2c(C(=O)N[C@@H]3CCCN(C(=O)C(Cl)=CC4CC4)C3)sc3nccc1c23` (mixture of isomers) [Example 402, (R,EZ)—N-(1-(2-Chloro-3-cyclopropylacryloyl)piperidin-3-yl)-5-(2-methyl-4-phenoxyphenyl)-4-oxo-4,5-dihydro-3H-1-thia-3,5,8-triazaacenaphthylene-2-carboxamide] stands 6.5.
As to `C=CC(=O)N1CCC[C@@H](NC(=O)c2sc3nccc4c3c2NC(=O)N4c2cnc(CC(C)C)cc2C)C1` (mixture of isomers) [Example 671, (R)—N-(1-Acryloylpiperidin-3-yl)-5-(6-isobutyl-4-methylpyridin-3-yl)-4-oxo-4,5-dihydro-3H-1-thia-3,5,8-triazaacenaphthylene-2-carboxamide], the IC50 under setting [3] was 0.0251 µM.
Consider `Cc1cc(Oc2ccccc2)ncc1N1C(=O)Nc2c(C(=O)N[C@@H]3COC[C@@H]3N)sc3nccc1c23` (racemic) [Example 707], for which the IC50 under setting [3] is 0.2 µM.
As to `Cc1ccc(Oc2ccccc2)cc1N1C(=O)Nc2c(C(=O)N[C@@H]3CCCN(C(=O)/C(C#N)=C/C4CC4)C3)sc3nccc1c23` (racemic) [Example 875, (E)-N-(1-(2-Cyano-3-cyclopropylacryloyl)piperidin-3-yl)-5-(2-methyl-5-phenoxyphenyl)-4-oxo-4,5-dihydro-3H-1-thia-3,5,8-triazaacenaphthylene-2-carboxamide], the “BTK_I_binding pIC50” value under setting [3] was found to be 7.2.
With `CO[C@@H]1CNC[C@H](NC(=O)c2sc3nccc4c3c2NC(=O)N4c2ccc(Oc3ccccc3)cc2C)C1` (relative stereo) [Example 467, N-((3R,5S)-5-Methoxypiperidin-3-yl)-5-(*S)-(2-methyl-4-phenoxyphenyl)-4-oxo-4,5-dihydro-3H-1-thia-3,5,8-triazaacenaphthylene-2-carboxamide], the “BTK_I_binding pIC50” value under setting [2] came out at 7.0.
With `CO[C@@H]1CNC[C@H](NC(=O)c2sc3nccc4c3c2NC(=O)N4c2ccc(Oc3ccccc3)cc2C)C1` (relative stereo) [Example 468, N-((3R,5S)-5-Methoxypiperidin-3-yl)-5-(*R)-(2-methyl-4-phenoxyphenyl)-4-oxo-4,5-dihydro-3H-1-thia-3,5,8-triazaacenaphthylene-2-carboxamide], under setting [2], the “BTK_I_binding pIC50” value came out at 5.9.
As to `C=CC(=O)N1C[C@@H](O)[C@@H](NC(=O)c2sc3nccc4c3c2NC(=O)N4c2ccc(Oc3ccccc3)cc2C)C1` (relative stereo) [Example 489, N-((3S,4R)-1-Acryloyl-4-hydroxypyrrolidin-3-yl)-5-(*S)-(2-methyl-4-phenoxyphenyl)-4-oxo-4,5-dihydro-3H-1-thia-3,5,8-triazaacenaphthylene-2-carboxamide], under setting [2], the “BTK_I_binding pIC50” value is reported as 7.6.
Consider `C=CC(=O)N1C[C@H](F)C[C@@H](NC(=O)c2sc3nccc4c3c2NC(=O)N4c2ccc(Oc3ccccc3)cc2C)C1` (relative stereo) [Example 499, N-((3R,5R)-1-Acryloyl-5-fluoropiperidin-3-yl)-5-(*S)-(2-methyl-4-phenoxyphenyl)-4-oxo-4,5-dihydro-3H-1-thia-3,5,8-triazaacenaphthylene-2-carboxamide], for which the “BTK_I_binding pIC50” value under setting [2] is given as 7.9.
The same measure, in the same setting: under `C=CC(=O)N1C[C@H](NC(=O)c2sc3nccc4c3c2NC(=O)N4c2ccc(Oc3ccccc3)cc2C)[C@@H](O)C1` (relative stereo) [Example 523, N-((3S,4S)-1-Acryloyl-4-hydroxypyrrolidin-3-yl)-5-(*S)-(2-methyl-4-phenoxyphenyl)-4-oxo-4,5-dihydro-3H-1-thia-3,5,8-triazaacenaphthylene-2-carboxamide] stands 7.5.
For `O=C(N[C@@H]1CCNC[C@H]1O)c1sc2nccc3c2c1NC(=O)N3c1ccc(Oc2ccccc2)cc1` (relative stereo) [Example 615, N-(trans-3-Hydroxypiperidin-4-yl)-4-oxo-5-(4-phenoxyphenyl)-4,5-dihydro-3H-1-thia-3,5,8-triazaacenaphthylene-2-carboxamide], the IC50 under setting [3] was 0.794 µM.
Take `CC(C)(C)OC(=O)N1CC[C@@H](NC(=O)c2sc3nccc4c3c2NC(=O)N4c2ccc(Oc3ccccc3)cc2)[C@H](O)C1` (relative stereo) [Example 617, trans-tert-Butyl 3-hydroxy-4-(4-oxo-5-(4-phenoxyphenyl)-4,5-dihydro-3H-1-thia-3,5,8-triazaacenaphthylene-2-carboxamido)piperidine-1-carboxylate]: the IC50 under setting [3] was 1 µM.
Still for that read-out and setting: under `O=C(N[C@@H]1CCNC[C@@H]1O)c1sc2nccc3c2c1NC(=O)N3c1ccc(Oc2ccccc2)cc1` (relative stereo) [Example 659, N-(cis-3-Hydroxypiperidin-4-yl)-4-oxo-5-(4-phenoxyphenyl)-4,5-dihydro-3H-1-thia-3,5,8-triazaacenaphthylene-2-carboxamide] stands 0.251 µM.
`C=CC(=O)N1C[C@H](O)C[C@@H](NC(=O)c2sc3nccc4c3c2NC(=O)N4c2ccc(Oc3ccccc3)cc2C)C1` (single isomer, unassigned) [Example 2, N-((3R,5S)-1-Acryloyl-5-hydroxypiperidin-3-yl)-5-(*S)-(2-methyl-4-phenoxyphenyl)-4-oxo-4,5-dihydro-3H-1-thia-3,5,8-triazaacenaphthylene-2-carboxamide]: the “BTK_I_binding pIC50” value under setting [1] amounted to 8.2.
